According to patent publication US9469613B2, “(N-(cyanomethyl)-4-(2-(4-morpholinophenylamino)pyrimidin-4-yl)benzamide” (Gilead Sciences, Inc., priority 2014, dated 2016):
Counter-ions that a name gives are not always drawn.

Key:
[1] = Solid form hygroscopicity and stability; format: physicochemical; settings: exposed to moisture
Method: Dynamic Vapor Sorption: The hygroscopicity of N-(cyanomethyl)-4-(2-(4-morpholinophenylamino)pyrimidin-4-yl)benzamide dihydrochloride monohydrate Form II was evaluated at room temperature using a dynamic vapor sorption (DVS) instrument (TGA Q5000 TA Instruments, New Castle, Del.). Water adsorption and desorption were studied as a function of relative humidity (RH) over the range of 0 to 90% at room temperature. The humidity in the chamber was increased from the initial level 50% RH) to 60% RH and held until the solid and atmosphere reached equilibration. The equilibrium test was continued until passed or expired after 10 hours. At this point, RH was raised 10% higher and the process was repeated until 90% RH was reached and equilibrated. During this period, the water sorption was monitored. For desorption, the relative humidity was decreased in a similar manner to measure a full sorption/desorption cycle. All experiments were operated in dm/dt mode (mass variation over time) to determine the equilibration endpoint. Approximately 4 mg of solid CYT-0387 was used. Data analysis was conducted using Universal Analysis 2000 Version 4.7A (TA Instruments, New Castle, Del., USA).

[2] = Mass balance/recovery, metabolite profile, pharmacokinetics and safety of radiolabeled CYT-0387; format: in vivo, human; settings: for share of circulating radioactivity: plasma
Method: CYT-0387 is a selective small molecule inhibitor of Janus kinase 1 and 2 (JAK1/JAK2) currently under investigation to treat myelofibrosis. This study evaluated the mass balance/recovery, metabolite profile, pharmacokinetics, and safety of radiolabeled CYT-0387 in humans.
Six healthy individuals (subjects) received a single oral dose of 200 mg CYT-0387 containing ˜100 μCi of [^14C]-CYT-0387. Blood samples were collected up to 21 days or until plasma radioactivity in 2 consecutive samples was below detection limit or urine and feces sampling was discontinued. Urine/feces samples were collected up to 21 days or until ≧90% administered dose was recovered in feces and urine and radioactivity in 2 consecutive sampling intervals were ≦1% administered dose. Plasma concentrations of CYT-0387 and metabolites were measured using LC-MS/MS and total radioactivity assessed by liquid scintillation counting. Metabolite profiling was performed in select urine, feces, and plasma samples. Safety assessments were performed throughout the study.

Row | Structure (SMILES) | hygroscopicity and physical stability [1] | share of circulating radioactivity [2] [%] | excreted in feces [2] | excreted in urine ([2]; urine)
1 | N#CCNC(=O)c1ccc(-c2ccnc(Nc3ccc(N4CCOCC4)cc3)n2)cc1 [N-(cyanomethyl)-4-(2-(4-morpholinophenylamino)pyrimidin-4-yl)benzamide (CYT-0387) dihydrochloride anhydrous Form I] | hygroscopic and physically unstable |  |  | 
2 | NC(=O)CNC(=O)c1ccc(-c2ccnc(Nc3ccc(N4CCOCC4=O)cc3)n2)cc1 [Compound M8, N-(2-amino-2-oxoethyl)-4-(2-((4-(3-oxomorpholino)phenyl)amino)pyrimidin-4-yl)benzamide] |  | 5.8 |  | 
3 | O=C(O)c1ccc(-c2ccnc(Nc3ccc(N4CCOCC4=O)cc3)n2)cc1 [Compound M14, 4-(2-((4-(3-oxomorpholino)phenyl)amino)pyrimidin-4-yl)benzoic acid] |  |  | 21.4 % of the dose | 
4 | CC(=O)Nc1ccc(Nc2nccc(-c3ccc(C(=O)NCC#N)cc3)n2)cc1 [Compound M20, 4-(2-((4-acetamidophenyl)amino)pyrimidin-4-yl)-N-(cyanomethyl)benzamide] |  | 2.3 |  | 
5 | N#CCNC(=O)c1ccc(-c2ccnc(Nc3ccc(N4CCOCC4=O)cc3)n2)cc1 [Compound M21, N-(cyanomethyl)-4-(2-{[4-(3-oxomorpholin-4-yl)phenyl]amino}pyrimidin-4-yl)benzamide] |  | 64.2 | 12.7 % of the dose | 11.5 % of the dose
